Where a SMILES comes first, the peptide text is derived from it. The star is where a group is joined. Cbz = O=C(OCc1ccccc1)*
Key:
SPPase [1] = assay: Photo-labelling of CHAPS-solubilised ER membrane proteins with TBL4K, anti-biotin western blot; format: binding, dog; settings: 50 nM TBL4K
Method: CHAPS-solubilised ER membrane proteins were mixed with 50 nM TBL4K (dissolved in DMSO) and samples incubated at 30° C. for 1 hour. Where indicated, samples were irradiated with UV light before precipitation with 10% trichloroacetic acid. Proteins were resolved on Tris-glycine acrylamide gels, transferred to PVDF membrane and biotinylated proteins were visualised by western blotting with polyclonal anti-biotin antibody.
For analytical labelling, 2 μl of CHAPS-solubilised ER membrane proteins were diluted with 16 μl of SPPase buffet (25 mM HEPES-KOH, pH 7.6, 100 mM KOAc, 2 mM Mg(OAc)2, 1 mM DTI) and supplemented with 50 nM TBL4K (dissolved in DMSO). Samples were incubated at 30° C. for 1 hour and subsequently irradiated with UV light (30 seconds; 350 W high pressure mercury lamp with a pyrex filter, 10 cm distance to lamp). Proteins were precipitated with 10% trichloroacetic acid and resolved on either Tris-glycine acrylamide gels (10% T, 2.7% C) (Lämmli, 1970 Nature, 227, 570-574). Biotinylated proteins were visualised by Western blotting with a polyclonal anti-biotin antibody (Bethyl). Western blot analysis was performed as described in Section 3, Materials and Methods for R308 antisera. […]

[2] = target: T1, signal peptide peptidase (SPPase) (Canis lupus familiaris, UniProt A0A8I3P6M4); assay: In vitro translation/translocation of SP-E1/100 and core-E1/100 with ER-derived rough microsomes: SPPase processing; format: biochemical, dog; settings: 10 μM (Z-LL)2-ketone; for Production of the 19 kDa core species (core179) from core-E1/100: FIG. 1B, FIG. 3B
T1 construct: translated in reticulocyte lysate in the presence of endoplasmic reticulum-(ER) derived rough microsomes; from tissue; host or cells: nuclease-treated rough microsomes from dog pancreas
Method: The mRNAs were translated in 25 μl rabbit reticulocyte lysate (Promega) containing [^35S]-methionine (Amersham-Pharmacia) and, where indicated, 2 eq of nuclease-treated rough microsomes prepared from dog pancreas (Martoglio et al., 1998, Cell Biology: A Laboratory Handbook. Academic Press, San Diego, Calif., vol 2, 265-274). To inhibit signal peptide peptidase (SPPase) processing, 10 μM (Z-LL)2-ketone was added to reactions (Weihofen et al., 2000 J Biol Chem 275, 30951-30956), and reactions were supplemented with 30 μM N-benzoyl-Asn-Leu-Thr-methyamide to prevent N-glycosylation of translated products (Martoglio et al., 1998, Cell Biology: A Laboratory Handbook. Academic Press, San Diego, Calif., vol 2,265-274). Samples were incubated for 30 min at 30° C. Reactions containing microsomes were next diluted with 25 μl of RM buffer (50 mM HEPES-KOH, pH7.6, 50 mM KOAc, 2 mM Mg(OAc)2, 1 mM DTT, 250 mM sucrose), and the salt concentration was raised to 500 mM KOAc. After incubation for 5 min on ice, membranes were separated by centrifugation through a 100 μl sucrose cushion (RM buffer with 500 mM KOAc and 500 mM sucrose) at 48,000 rpm for 3 min at 4° C. in a Beckman TLA100 rotor. Membrane pellets were prepared for SDS-PAGE as described (Weihofen et al., 2000 J Biol Chem. 275, 30951-30956).
This processing event was re-examined in an in vitro translation/translocation system. Two RNA substrates, that had been transcribed in vitro, were employed. One contained the E1 signal sequence and the N-terminal 100 aa of E1 (SP-E1/100), and the second consisted of the entire core protein, including the signal sequence, plus the N-terminal 100 aa of E1 (core-E1/100). These were translated in reticulocyte lysate in the presence of endoplasmic reticulum-(ER) derived rough microsomes and [^35S]-methionine. Microsomes were subsequently isolated and analysed for retention of radiolabelled translation products.

signal peptidase = settings: previous studies (Weihofen et al., 2000); cited from earlier work
BHK C13 cells = assay: Abundance of HCV core protein in electroporated BHK cells treated with MG132 (western blot, immunofluorescence); format: cell-based, baby hamster; settings: MG132 for 12 hours at 37° C.
Method: BHK cells were electroporated with RNA and 5 hours after incubation at 37° C., they were treated with MG132 for 12 hours at 37° C. Cells were either fixed with methanol for indirect immunofluorescence (A) or extracts were prepared for Western blot analysis (B and C).
For the purposes of the present invention, the cultured cells derived from baby hamster kidney (BHK) C13 cells were grown and maintained in Glasgow minimal Eagle's Medium supplemented with 10% new-born calf serum (CS), 4% tryptose phosphate broth, and 100 IU/ml penicillin/streptomycin (ETC10). To treat cells with MG132 (Boston Biochem), cultured cells were incubated for 5 hours after electroporation at 37° C. and the BHK media was replaced with fresh media containing the protease inhibitor at a final concentration of […]. Incubation was continued at 37° C. for a further 12 hours before the cells were either harvested for Western blot analysis or fixed for indirect immunofluorescence studies.

SPPase [3] = assay: Signal peptide processing of p-PrlPP/29 by CHAPS-solubilised ER membrane proteins containing SPPase activity; format: biochemical, dog; set-up: SPF production: dose or concentration left out as unconfirmed
Method: Radio-labelled p-Prl^PP/29 signal peptide was generated by in vitro translation in wheat germ extract containing [^35S]-methionine. Peptide was added to CHAPS-solubilised membranes in the absence or presence of TBL4K (at the indicated final concentrations) and incubated for 1 hour at 30° C. Proteins were precipitated with 10% trichloroacetic acid and analysed by SDS-PAGE using Tris-bicine-urea acrylamide gels. Bands corresponding to signal peptide substrate (ps) and the fragment of signal peptide remaining after SPPase processing (SPF) are indicated.
The inhibitory effect of TBL4K on SPPase was assayed with CHAPS-solubilised ER membrane proteins and an in vitro translated peptide substrate. The substrate was a 29 aa residues long mutant signal peptide of pre-prolactin (p-Prl^PP/29; […]). The VV→PP mutation at the end of the signal peptide prevents cleavage by signal peptidase, which can cleave the peptide at the cryptic cleavage site at G27 when solubilised in CHAPS (B.M. unpublished). […] Proteins were precipitated by adding 4 μl of 100% trichloroacetic acid, and analysed by SDS-PAGE using Tris-bicine-urea acrylamide gels (15% T or 10% T, 5% C; 8 M urea) (Wiltfang et al., 1997 Electrophoresis 18, 527-532). […]

[4] = tested on: T2, p-Prl^PP/29, 29 aa mutant signal peptide of pre-prolactin
T2 sequence: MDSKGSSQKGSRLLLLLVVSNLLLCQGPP

T1 sequence (A0A8I3P6M4 entry or part of it): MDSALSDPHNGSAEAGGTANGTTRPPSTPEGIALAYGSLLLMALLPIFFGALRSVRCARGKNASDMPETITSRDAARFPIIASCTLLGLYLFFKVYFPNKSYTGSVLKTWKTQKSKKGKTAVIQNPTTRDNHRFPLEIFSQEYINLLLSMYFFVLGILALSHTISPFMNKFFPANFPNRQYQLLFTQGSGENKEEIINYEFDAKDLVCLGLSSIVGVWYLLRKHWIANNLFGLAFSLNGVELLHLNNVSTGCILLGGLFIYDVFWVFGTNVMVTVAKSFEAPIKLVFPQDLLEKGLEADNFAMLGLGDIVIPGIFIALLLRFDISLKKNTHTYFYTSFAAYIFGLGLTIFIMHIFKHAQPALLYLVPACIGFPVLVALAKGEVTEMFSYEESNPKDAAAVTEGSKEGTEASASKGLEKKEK

CC(C)C[C@H](NC(=O)OCc1ccccc1)C(=O)N[C@@H](CC(C)C)C(=O)NCC(=O)CNC(=O)[C@H](CC(C)C)NC(=O)[C@H](CC(C)C)NC(=O)OCc1ccccc1 [(Z-LL)2 ketone]
Labelling by TBL4K in presence of competitor (SPPase [1]; highest concentration of (Z-LL)2 ketone, FIG. 10): almost completely abolished | Cleavage by SPPase of the signal peptide generated from SP-E1/100 ([2]; FIG. 1A): blocked | Production of the 19 kDa core species (core179) from core-E1/100 [2]: blocked | Production of the 19 kDa core species (core179) from core-E1/100 ([2]; listed as SPPase inhibitor): not generated | Effect on cleavage by signal peptidase (signal peptidase): does not affect

CC(C)C[C@@H](C=O)NC(=O)[C@H](CC(C)C)NC(=O)[C@H](CC(C)C)NC(=O)OCc1ccccc1 [MG132] (Cbz-Leu-Leu-Leu-aldehyde)
Levels of core produced by pSF/CE1E2 (core variant lacking residues 125-144) (BHK C13 cells; FIG. 7B lanes 3 and 4): enhanced levels | Amount of core in cells electroporated with pSF/MUTIII RNA (125-144 deleted, signal peptide mutations) (BHK C13 cells; FIG. 7B lanes 5 and 6): did not affect

(TDBA-LL)(Biotin-X-LL) ketone [TBL4K]
SPF production (SPPase [3]; highest concentration used): abolished | IC50 (SPPase [3]; substrate p-PrlPP/29, 1 hour at 30° C., FIG. 9, read-out: IC50 for inhibition of SPPase activity): ~50 nM | Proteins labelled after UV activation (SPPase [1]; UV light, FIG. 10 lane 3): labelling of a major product of about 42 kDa

signal peptide peptidase (SPPase) of ER-derived rough microsomes from dog pancreas
processing of the signal peptide by SPPase (SP-E1/100 MUTIII): less than 5% processing of the signal peptide by SPPase | efficiency of processing (core179 relative to core191+core179) (core-E1/100 MUTI): reduced efficiency of processing from 40% to 12% | product cleaved by SPPase (in vitro translation/translocation) (core-E1/100 MUTII): failed to generate any detectable product that had been cleaved by SPPase | signal peptide processing (production of the SPF fragment) with CHAPS-solubilised ER membrane proteins [4]: signal peptide processing reactions were performed with a substrate, p-Prl^PP/29, that corresponds to a mutated signal peptide of pre-prolactin, and CHAPS-solubilised ER membrane proteins containing SPPase activity | cleavage of the signal peptide (in vitro translation/translocation) (SP-E1/100 MUTII): cleavage of the signal peptide was reduced with both mutants, but to a greater extent with pSP/MUTII as compared to pSP/MUTI | cleavage of the signal peptide (in vitro translation/translocation) (SP-E1/100 MUTI): cleavage of the signal peptide was reduced with both mutants, but to a greater extent with pSP/MUTII as compared to pSP/MUTI | product cleaved by SPPase (in vitro translation/translocation) (core-E1/100 MUTIII): failed to generate any detectable product that had been cleaved by SPPase | signal peptide processing by SPPase (in vitro translation/translocation, with and without (Z-LL)2 ketone) (SP-E1/100 (wild type)): the internal signal sequence at the junction of core-E1 functions as a typical ER targeting signal and is a substrate not only for signal peptidase but also for SPPase | efficiency of processing (core179 relative to core191+core179) (core-E1/100 (wild type)): reduced efficiency of processing from 40% to 12% | production of the 19 kDa core species (in vitro translation/translocation, with and without (Z-LL)2 ketone) (core-E1/100 (wild type)): the signal peptide at the junction of core-E1 sequences in HCV is first cleaved by signal peptidase and subsequently processed by SPPase

— patent publication US20050089839A1, “Assay” (priority 2001, published 2005)
